Experimental data as given in US6525098B1, “6-methoxy-2-naphthylacetic acid prodrugs” (Nobex Corporation, priority 1999, dated 2003).

How the values were obtained:
rat paw edema = experiment: rat paw edema; format: in vivo
[1] = analysis of blood samples / plasma levels in rats after oral delivery; format: in vivo
Description: FIG. 1 is a graph of in plasma levels of Example 1 compared to Nabumetone.

[2] = oral administration; cited from earlier work

Row | SMILES | rat paw edema, % inhibition (rat paw edema) [%] | plasma levels and onset compared to Nabumetone (FIG. 1) [1] | melting point [°C] | fraction of orally administered nabumetone transferred in vivo into 6MNA [2]
1 | COc1ccc2cc(CCO)ccc2c1 [Example 1, 2-(6-Methoxy-naphthalen-2-yl)-ethanol] | 67.5 | higher plasma levels, with more rapid onset | 110 to 113 | 
2 | COc1ccc2cc(CCC(C)=O)ccc2c1 [Nabumetone, nabumetone, reference compound] | 60.0 |  |  | about 35%
